Measured values from US20050197350A1, “Novel quinoline, tetrahydroquinazoline, and pyrimidine derivatives and methods of treatment related to the use thereof” (TAISHO PHARMACEUTICAL CO., LTD., priority 2003, published 2005).

Tested on: MCH receptors
Experiment: MCH receptor activity class (method not given)
[1] = class 1-3 by percent of control at 10^-7 M or IC50
[2] = class by percent of control at 10^−7 M or IC50
[3] = class by percent of control at 10^-7 M or IC50
[4] = MCH receptor activity class 1-3 (percent of control at 10^-7 M or IC50)
[5] = activity class per percent of control at 10^-7 M or IC50
[6] = MCH receptor, class by percent of control at 10^-7 M or IC50

SMILES | class [3] | other results
COc1ccc(CC(=O)N[C@H]2CC[C@@H](Nc3nc4c(c(N(C)C)n3)CCCC4)CC2)cc1 [compound 505] | – | class [1]: 2 (Class 2: The value of percent of control at 10^−7 M was from 40% to 60% or the value of IC′50 was from 50 nM to 200 nM.)
CCOc1ncccc1C(=O)N[C@H]1CC[C@@H](Nc2nc(C)c(C)c(N(C)C)n2)CC1 [compound 2834] | – | class [2]: 3 (Class 3 The value of percent of control at 10^−7 M was more than 60% or the value of IC50 was more than 200 nM.)
CCSC(C(=O)N[C@H]1CC[C@@H](Nc2cc(N(C)C)c3ccccc3n2)CC1)(c1ccccc1)c1ccccc1 [compound 734] | 3 (Class 3 The value of percent of control at 10^−7 M was more than 60% or the value of IC50 was more than 200 nM.) | –
CN(C)c1cc(N[C@H]2CC[C@@H](CNC(=O)Nc3cccc(Cl)c3Cl)CC2)nc2ccccc12 [compound 2394] | – | class [4]: 2 (Class 2: The value of percent of control at 10^−7 M was from 40% to 60% or the value of IC′50 was from 50 nM to 200 nM.)
CN(C)c1cc(N[C@H]2CC[C@@H](CNC(=O)Nc3ccccc3C(C)(C)C)CC2)nc2ccccc12 [compound 2384] | – | class [4]: 1 (Class 1: The value of percent of control at 10^−7 M was less than 40% or the value of IC50 was less than 50 nM.)
CN(C)c1ccnc(N[C@H]2CC[C@@H](CNC(=O)OCc3ccc([N+](=O)[O-])cc3)CC2)n1 [compound 401] | 3 (Class 3 The value of percent of control at 10^−7 M was more than 60% or the value of IC50 was more than 200 nM.) | –
Cc1c(C(=O)N[C@H]2CC[C@@H](Nc3cc(N(C)C)c4ccccc4n3)CC2)cc(-c2ccccc2)n1CCCN1CCOCC1 [compound 724] | 3 (Class 3 The value of percent of control at 10^−7 M was more than 60% or the value of IC50 was more than 200 nM.) | –
CN(C)c1nc(N[C@H]2CC[C@@H](CNCc3ccc(O)cc3Cl)CC2)nc2c1CCCC2 [compound 1388] | 2 (Class 2: The value of percent of control at 10^−7 M was from 40% to 60% or the value of IC′50 was from 50 nM to 200 nM.) | –
CN(C)c1cc(N[C@H]2CC[C@@H](NC(=O)Nc3c(Cl)cc(Cl)cc3Cl)CC2)nc2ccccc12 [compound 2099, N-(cis-4-{[4-(dimethylamino)quinolin-2-yl]amino}cyclohexyl)-N′-(2,4,6-trichlorophenyl)urea] | 2 (Class 2: The value of percent of control at 10^−7 M was from 40% to 60% or the value of IC′50 was from 50 nM to 200 nM.) | –
CN(C)c1nc(N[C@H]2CC[C@@H](NC(=O)c3ccccc3Oc3ccccc3)CC2)nc2c1CCCC2 [compound 1030] | – | class [5]: 1 (Class 1: The value of percent of control at 10^−7 M was less than 40% or the value of IC50 was less than 50 nM.)
COc1ccc(NC(=O)N[C@H]2CC[C@@H](Nc3nccc(N(C)C)n3)CC2)c(OC)c1 [compound 2231] | 3 (Class 3 The value of percent of control at 10^−7 M was more than 60% or the value of IC50 was more than 200 nM.) | –
CN(C)c1cc(N[C@H]2CC[C@@H](NC(=O)C3CCCC[C@H]3C(=O)c3ccccc3)CC2)nc2ccccc12 (stereo partly shown) [compound 693] | 3 (Class 3 The value of percent of control at 10^−7 M was more than 60% or the value of IC50 was more than 200 nM.) | –
CN(C)c1ccnc(N[C@H]2CC[C@@H](CNCc3cccc(C#N)c3)CC2)n1 [compound 1284] | 3 (Class 3 The value of percent of control at 10^−7 M was more than 60% or the value of IC50 was more than 200 nM.) | –
COc1ccc(CN[C@H]2CC[C@@H](Nc3nc4c(c(N(C)C)n3)CCCC4)CC2)c(OC)c1OC [compound 1336] | 3 (Class 3 The value of percent of control at 10^−7 M was more than 60% or the value of IC50 was more than 200 nM.) | –
CN(C)c1cccc(C(=O)N[C@H]2CC[C@@H](Nc3nc4c(c(N(C)C)n3)CCCC4)CC2)c1 [compound 981, 3-(dimethylamino)-N-(cis-4-{[4-(dimethylamino)-5,6,7,8-tetrahydroquinazolin-2-yl]amino}cyclohexyl)benzamide] | – | class [5]: 2 (Class 2: The value of percent of control at 10^−7 M was from 40% to 60% or the value of IC′50 was from 50 nM to 200 nM.)
CN(C)c1ccnc(N[C@H]2CC[C@@H](NC(=O)c3cc(F)c(Cl)cc3Cl)CC2)n1 [compound 257] | 3 (Class 3 The value of percent of control at 10^−7 M was more than 60% or the value of IC50 was more than 200 nM.) | –
COCCOC(=O)N[C@H]1CC[C@@H](Nc2cc(N(C)C)c3ccccc3n2)CC1 [compound 1545] | – | class (activity class 1-3: percent of control at 10^-7 M or IC50): 3 (Class 3 The value of percent of control at 10^−7 M was more than 60% or the value of IC50 was more than 200 nM.)
CN(C)c1ccnc(N[C@H]2CC[C@@H](NC(=O)COc3c(F)c(F)c(F)c(F)c3F)CC2)n1 [compound 340, N-(cis-4-{[4-(dimethylamino)pyrimidin-2-yl]amino}cyclohexyl)-2-(pentafluorophenoxy)acetamide] | 2 (Class 2: The value of percent of control at 10^−7 M was from 40% to 60% or the value of IC′50 was from 50 nM to 200 nM.) | –
COc1cc(CNC[C@H]2CC[C@@H](Nc3nccc(N(C)C)n3)CC2)cc(I)c1O [compound 1260] | 1 (Class 1: The value of percent of control at 10^−7 M was less than 40% or the value of IC50 was less than 50 nM.) | –

SMILES | class [3] | other results
CN(C)c1ccnc(N[C@H]2CC[C@@H](NC(=O)c3cccc(C(F)(F)F)c3F)CC2)n1 [compound 282] | 3 (Class 3 The value of percent of control at 10^−7 M was more than 60% or the value of IC50 was more than 200 nM.) | –
CN(C)c1ccnc(N[C@H]2CC[C@@H](NC(=O)C(CC(=O)c3ccc(C(C)(C)C)cc3)c3cn(C)c4ccccc34)CC2)n1 (relative stereo) [compound 861] | 3 (Class 3 The value of percent of control at 10^−7 M was more than 60% or the value of IC50 was more than 200 nM.) | –
CN(C)c1ccnc(N[C@H]2CC[C@@H](NC(=S)Nc3ccc(Cl)cc3C(F)(F)F)CC2)n1 [compound 2339] | – | class [4]: 3 (Class 3 The value of percent of control at 10^−7 M was more than 60% or the value of IC50 was more than 200 nM.)
CN(C)c1ccnc(N[C@H]2CC[C@@H](NC(=O)c3scc(S(C)(=O)=O)c3Cl)CC2)n1 [compound 903] | 3 (Class 3 The value of percent of control at 10^−7 M was more than 60% or the value of IC50 was more than 200 nM.) | –
CN(C)c1cc(N[C@H]2CC[C@@H](NC(=O)C(c3ccccc3)c3ccccc3)CC2)nc2ccccc12 [compound 32, N-(cis-4-{[4-(dimethylamino)quinolin-2-yl]amino}cyclohexyl)-2,2-diphenylacetamide] | – | class [6]: 2 (Class 2: The value of percent of control at 10^−7 M was from 40% to 60% or the value of IC′50 was from 50 nM to 200 nM.)
CN(C)c1cc(N[C@H]2CC[C@@H](NC(=O)Cc3c[nH]c4ccc(OCc5ccccc5)cc34)CC2)nc2ccccc12 [compound 748] | 3 (Class 3 The value of percent of control at 10^−7 M was more than 60% or the value of IC50 was more than 200 nM.) | –
CN(C)c1cc(N[C@H]2CC[C@@H](CNC(=O)c3cc(C(C)(C)C)nn3Cc3ccccc3)CC2)nc2ccccc12 [compound 212] | – | class [6]: 3 (Class 3 The value of percent of control at 10^−7 M was more than 60% or the value of IC50 was more than 200 nM.)
CN(C)c1nc(N[C@H]2CC[C@@H](CNCCCCc3ccc([N+](=O)[O-])cc3)CC2)nc2c1CCCC2 [compound 1512] | 3 (Class 3 The value of percent of control at 10^−7 M was more than 60% or the value of IC50 was more than 200 nM.) | –
COc1ccc(C)cc1NC(=O)N[C@H]1CC[C@@H](Nc2nc3c(c(N(C)C)n2)CCCC3)CC1 [compound 1801] | 3 (Class 3 The value of percent of control at 10^−7 M was more than 60% or the value of IC50 was more than 200 nM.) | –
CN(C)c1ccnc(N[C@H]2CC[C@@H](CNC(=O)c3ccc(Cl)c(Cl)c3)CC2)n1 [compound 376] | 2 (Class 2: The value of percent of control at 10^−7 M was from 40% to 60% or the value of IC′50 was from 50 nM to 200 nM.) | –
CN(C)c1ccnc(N[C@H]2CC[C@@H](NC(=S)NC3CC4CCC3C4)CC2)n1 (relative stereo) [compound 2355] | – | class [4]: 3 (Class 3 The value of percent of control at 10^−7 M was more than 60% or the value of IC50 was more than 200 nM.)
Cc1cc(N(C)C)nc(N[C@H]2CC[C@@H](NC(=O)C(C)(C)c3ccc(Cl)cc3)CC2)n1 [compound 2949, 2-(4-chlorophenyl)-N-(cis-4-{[4-(dimethylamino)-6-methylpyrimidin-2-yl]amino}cyclohexyl)-2-methylpropanamide] | – | class [2]: 1 (Class 1: The value of percent of control at 10^−7 M was less than 40% or the value of IC50 was less than 50 nM.)
CCc1cccc(CC)c1NC(=S)N[C@H]1CC[C@@H](Nc2nccc(N(C)C)n2)CC1 [compound 2322] | – | class [4]: 3 (Class 3 The value of percent of control at 10^−7 M was more than 60% or the value of IC50 was more than 200 nM.)
Cc1cnc(N[C@H]2CC[C@@H](C(=O)N[C@@H](C)c3cccc4ccccc34)CC2)nc1N(C)C (relative stereo) [compound 2783, cis-4-{[4-(dimethylamino)-5-methylpyrimidin-2-yl]ainino}-N-[(1S)-1-(1-naphthyl)ethyl]cyclohexanecarboxamide] | – | class [2]: 1 (Class 1: The value of percent of control at 10^−7 M was less than 40% or the value of IC50 was less than 50 nM.)
CN(C)c1cc(N[C@H]2CC[C@@H](CNC(=O)c3c(Cl)cc(Cl)cc3Cl)CC2)nc2ccccc12 [compound 233] | 1 (Class 1: The value of percent of control at 10^−7 M was less than 40% or the value of IC50 was less than 50 nM.) | –
CN(C)c1nc(N[C@H]2CC[C@@H](NC(=O)c3ccc(F)cc3Cl)CC2)nc2c1CCCC2 [compound 497] | – | class [1]: 2 (Class 2: The value of percent of control at 10^−7 M was from 40% to 60% or the value of IC′50 was from 50 nM to 200 nM.)
CN(C)c1nc(N[C@H]2CC[C@@H](NC(=S)Nc3ccc(F)cc3)CC2)nc2c1CCCC2 [compound 1941] | – | class [6]: 3 (Class 3 The value of percent of control at 10^−7 M was more than 60% or the value of IC50 was more than 200 nM.)
CCOc1cc(CNC[C@H]2CC[C@@H](Nc3nccc(N(C)C)n3)CC2)ccc1OC [compound 1255] | 1 (Class 1: The value of percent of control at 10^−7 M was less than 40% or the value of IC50 was less than 50 nM.) | –
